From PMC12388126, “Photochemically Assisted Synthesis of Thienobenzotriazole-Based Dual Cholinesterase Inhibitors” (Molecules, 2025)
Read-outs that look alike come from different tables or passages of the source.

How the values were obtained:
[1] = biological target: T1, butyrylcholinesterase (BChE) (Equus caballus, UniProt P81908); assay: BChE inhibition, modified Ellman method; type: biochemical
T1 construct: BChE (extracted from equine serum); purchased Sigma-Aldrich; host or cells: equine serum (natural source)
Protocol: (§1) Building on the previously promising in vitro results of thienobenzo-1,2,3-triazolinium salts against cholinesterases, research was extended to a series of structurally related bromide salts. The inhibitory effects of a new set of triazolinium salts (1–4, 7–11, 14–17) on the activities of acetylcholinesterase (AChE) and butyrylcholinesterase (BChE) are summarized in Table 1. Their inhibitory activity was assessed using a modified Ellman method over a wide concentration range (0.01–250 μM). The IC50 values listed in Table 1 are relative IC50 values, obtained directly from the nonlinear regression analysis of the inhibition curves under defined test conditions. For reference, the inhibitory effect at the highest tested concentration is also reported. The results were compared with galantamine, a well-known cholinesterase inhibitor used in the treatment of Alzheimer’s disease.
(§2) The inhibitory effects of the new synthesized thiabenzo-1,2,3-triazolinium bromide salts, 1–4, 7–11, and 14–17, on acetylcholinesterase (AChE) and butyrylcholinesterase (BChE) activity were evaluated using the modified Ellman’s method.
(§3) DTNB, ATChI, and BTChI were prepared in 50 mM Tris buffer (pH 8.0), while the enzymes were made in 20 mM Tris buffer (pH 7.5). Using a 96-well microplate reader (Agilent, BioTek 800TS, Santa Clara, CA, USA), cholinesterase activity was assessed. Amounts of 180 μL of 50 mM Tris buffer, 10 μL of tested solutions with final concentrations ranging from 0.01 to 250 μM, and 10 μL of an enzyme with a final concentration of 0.03 U/mL were added to the microplate well, which was then left to incubate for 15 min at room temperature. Following incubation, 10 μL of DTNB (final concentration: 0.3 mM) and […] of ATChI/BTChI (final concentration: 0.5 mM) were added to the reaction mixture. After four minutes, the absorbance was measured at 405 nm. Non-enzymatic hydrolysis was assessed as a blank for the control measurement in the absence of inhibitors and enzymes. The samples were tested using the non-enzymatic hydrolysis procedure with an additional inhibitor as a blank. The enzyme was swapped out for the same amount of buffer.
(§4) The inhibition % was determined using the following formula: Inhibition (%) = [(AC − AT)/AC] × 100, where AC is the activity of the enzyme without a test sample and AT is the activity of the enzyme with a test sample. The mean values ± standard deviation are used to illustrate the results. Inhibitory activity of ethanol was deducted from each sample. A nonlinear fit of compound concentration values vs. response was used to determine the IC50 values. Each trazolinium salt was tested against both enzymes in triplicate.

[2] = biological target: acetylcholinesterase (AChE) (Electrophorus electricus, UniProt O42275); assay: AChE inhibition, modified Ellman method; type: biochemical; settings: for inhibition at 50 µM / inhibition at 100 µM / inhibition at 250 µM: read-out: AChE Inhibition (%); for IC50: relative IC50 from nonlinear regression, tested 0.01–250 μM
Protocol: as §1, §2, §3, §4

[3] = test system: LPS-stimulated TNFα production in PBMCs; assay: TNFα production in LPS-stimulated PBMCs (ELISA); type: cell-based, human
Protocol: The potential anti-inflammatory activity of compounds 1–4, 7–11, and 14–17 was also evaluated in vitro by the measurement of TNFα production in LPS-stimulated PBMCs. […] At lower concentrations that were not affecting cell viability, LPS-induced TNFα production was not changed. […] Compound 17 was active only at the highest tested concentration.
The effect of compounds on tumor necrosis factor alpha (TNFα) production in lipopolysaccharide (LPS)-stimulated peripheral blood mononuclear cells (PBMCs) was evaluated as described previously. […]
(§5) For cell viability evaluation, CellTiter-Glo reagent was used (Promega, Radoboj, Croatia) according to the manufacturer’s instructions. […] TNFα concentration in supernatants was measured by ELISA using antibodies and recombinant human TNFα protein (standard) from R&D Systems. […] Finally, after the plates were incubated with streptavidin HRP (Invitrogen, Thermo Fisher Scientific, Waltham, MA, USA), chemiluminescence ELISA Substrate (Roche, Zagreb, Croatia) was added to the wells and luminescence was measured using EnVision 2105 multilabel reader (Revvity, Waltham, MA, USA). Concentrations of TNFα in the supernatants were calculated using measured luminescence by interpolation from standard curves. […]

[4] = test system: PBMCs; assay: Cell viability of PBMCs (CellTiter-Glo); type: cell-based; settings: LPS-stimulated PBMCs, 24 h
Protocol: The effect of compounds on tumor necrosis factor alpha (TNFα) production in lipopolysaccharide (LPS)-stimulated peripheral blood mononuclear cells (PBMCs) was evaluated as described previously. In short, PBMCs were isolated from buffy coats obtained from healthy adult volunteers and resuspended in RPMI1640 medium (Capricorn Scientific, Ebsdorfergrundu, Germany) supplemented with 10% heat-inactivated FBS (Biowest, Nuailléu, France), 1% GlutaMAX (Gibco, St. Louis, MO, USA), and 1% Antibiotic-Antimycotic (Gibco, St. Louis, MO, USA). PBMCs were seeded as 2 × 10^5 per well of a 96-well plate. […]
as §5

[5] = test system: BChE; design: method as in PMID 40732321; settings: cited from earlier work
[6] = test system: LPS-induced TNF-α production; design: method as in PMID 40732321; settings: read-out: IC50, inhibition of LPS-induced TNF-α production; cited from earlier work
[7] = relative IC50 from nonlinear regression, tested 0.01–250 μM, read-out: BChE IC50

T1 sequence (P81908 whole entry): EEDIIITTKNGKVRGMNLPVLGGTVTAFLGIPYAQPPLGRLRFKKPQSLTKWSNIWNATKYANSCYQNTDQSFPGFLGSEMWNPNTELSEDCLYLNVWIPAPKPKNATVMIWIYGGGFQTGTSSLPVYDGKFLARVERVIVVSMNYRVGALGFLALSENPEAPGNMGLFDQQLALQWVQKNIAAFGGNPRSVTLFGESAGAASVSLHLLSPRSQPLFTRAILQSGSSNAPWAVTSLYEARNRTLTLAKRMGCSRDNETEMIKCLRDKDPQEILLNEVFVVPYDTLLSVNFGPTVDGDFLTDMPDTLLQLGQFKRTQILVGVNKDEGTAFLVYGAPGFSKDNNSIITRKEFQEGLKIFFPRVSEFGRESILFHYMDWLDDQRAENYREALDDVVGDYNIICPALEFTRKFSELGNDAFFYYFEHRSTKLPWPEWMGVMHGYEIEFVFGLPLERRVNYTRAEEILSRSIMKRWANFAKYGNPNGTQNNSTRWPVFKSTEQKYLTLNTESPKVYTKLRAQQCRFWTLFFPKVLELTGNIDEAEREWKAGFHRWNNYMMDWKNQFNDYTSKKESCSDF
acetylcholinesterase (AChE), sequence (O42275 24-633): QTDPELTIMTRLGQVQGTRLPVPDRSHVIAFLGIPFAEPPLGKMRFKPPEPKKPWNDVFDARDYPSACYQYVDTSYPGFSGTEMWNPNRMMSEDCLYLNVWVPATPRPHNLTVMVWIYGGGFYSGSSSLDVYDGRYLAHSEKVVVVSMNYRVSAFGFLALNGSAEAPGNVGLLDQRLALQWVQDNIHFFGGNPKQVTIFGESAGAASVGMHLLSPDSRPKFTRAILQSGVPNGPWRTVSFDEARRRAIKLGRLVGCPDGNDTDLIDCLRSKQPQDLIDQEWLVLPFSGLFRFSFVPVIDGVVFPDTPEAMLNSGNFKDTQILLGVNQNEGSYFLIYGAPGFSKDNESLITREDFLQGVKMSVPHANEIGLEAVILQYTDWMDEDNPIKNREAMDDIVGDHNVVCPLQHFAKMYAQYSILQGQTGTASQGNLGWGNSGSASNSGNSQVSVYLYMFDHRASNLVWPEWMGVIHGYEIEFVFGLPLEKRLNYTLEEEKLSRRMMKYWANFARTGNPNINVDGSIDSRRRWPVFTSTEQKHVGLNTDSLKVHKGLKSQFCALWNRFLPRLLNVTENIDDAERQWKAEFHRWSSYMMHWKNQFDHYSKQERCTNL

SMILES | inhibition at 25 µM ([1]; read-out: BChE Inhibition (%)) [%] | IC50 [1, 7] [µM] | inhibition at 50 µM [2] [%] | IC50 [2] [µM] | other results
Cc1cccc(Cn2n[n+](Cc3ccccc3)c3ccc4sccc4c32)c1 [Compound 1, 3-benzyl-1-(3-methylbenzyl)-1H-thieno[3′,2′:3.4]benzo[1.2-d][1.2,3]triazol-3-ium bromide] | 83.9 ± 0.2 | 0.4 | 78.6 ± 0.5 | 6.3 | –
Cc1ccc(C[n+]2nn(Cc3cccc(C)c3)c3c4ccsc4ccc32)cc1 [Compound 2, 1-(3-methylbenzyl)-3-(4-methylbenzyl)-1H-thieno[3′,2′:3.4]benzo[1.2-d][1.2,3]triazol-3-ium bromide] | – | 0.3 | 82.1 ± 4.2 | 4.1 | inhibition at 2.5 µM ([1]; read-out: BChE Inhibition (%)): 77.6 ± 0.3%
Cc1cccc(Cn2n[n+](Cc3ccc(I)cc3)c3ccc4sccc4c32)c1 [Compound 3, 3-(4-iodobenzyl)-1-(3-methylbenzyl)-1H-thieno[3′,2′:3.4]benzo[1.2-d][1.2,3]triazol-3-ium bromide] | – | 0.7 | 76.7 ± 0.5 | 5.9 | inhibition at 50 µM ([1]; read-out: BChE Inhibition (%)): 84.9 ± 3.6%
Clc1cccc(Cn2n[n+](Cc3ccc(I)cc3)c3ccc4sccc4c32)c1 [Compound 4, 1-(3-chlorobenzyl)-3-(4-iodobenzyl)-1H-thieno[3′,2′:3.4]benzo[1.2-d][1.2,3]triazol-3-ium bromide] | 83.2 ± 0.9 | 0.8 | 74.6 ± 5 | 14.2 | –
COc1cccc(Cn2n[n+](Cc3ccc(Cl)cc3)c3ccc4sccc4c32)c1 [Compound 7, 3-(4-chlorobenzyl)-1-(3-methoxybenzyl)-1H-thieno[3′,2′:3.4]benzo[1.2-d][1.2,3]triazol-3-ium bromide] | – | 1 | – | 11.8 | inhibition at 10 µM ([1]; read-out: BChE Inhibition (%)): 78.2 ± 0.4%; inhibition at 100 µM [2]: 79.4 ± 4.9%
Cc1ccc(Cn2n[n+](Cc3ccccc3)c3ccc4sccc4c32)cc1 [Compound 8, 3-benzyl-1-(4-methylbenzyl)-1H-thieno[3′,2′:3.4]benzo[1.2-d][1.2,3]triazol-3-ium bromide] | – | 0.4 | 80.7 ± 2.3 | 2.6 | inhibition at 10 µM ([1]; read-out: BChE Inhibition (%)): 83.6 ± 1%
Cc1ccc(Cn2n[n+](Cc3ccc(C)cc3)c3ccc4sccc4c32)cc1 [Compound 9, 1.3-bis(4-methylbenzyl)-1H-thieno[3′,2′:3.4]benzo[1.2-d][1.2,3]triazol-3-ium bromide] | 76.6 ± 0.4 | 3.5 | 78.7 ± 0.6 | 5.7 | –
Cc1ccc(Cn2n[n+](Cc3ccc(Cl)cc3)c3ccc4sccc4c32)cc1 [Compound 10, 3-(4-chlorobenzyl)-1-(4-methylbenzyl)-1H-thieno[3′,2′:3.4]benzo[1.2-d][1.2,3]triazol-3-ium bromide] | 79.9 ± 1.1 | 1.5 | – | 6.5 | inhibition at 100 µM [2]: 81.9 ± 0.6%
Cc1ccc(Cn2n[n+](Cc3ccc([N+](=O)[O-])cc3)c3ccc4sccc4c32)cc1 [Compound 11, 1-(4-methylbenzyl)-3-(4-nitrobenzyl)-1H-thieno[3′,2′:3.4]benzo[1.2-d][1.2,3]triazol-3-ium bromide] | 81.1 ± 1.7 | 2.7 | 83.6 ± 2.1 | 3.2 | –
CC=Cn1n[n+](Cc2ccccc2)c2ccc3sccc3c21 [Compound 14, 3-benzyl-1-(prop-1-en-1-yl)-1H-thieno[3′,2′:3.4]benzo[1.2-d][1.2,3]triazol-3-ium bromide] | 80.4 ± 2.9 | – | – | 4.3 | IC50 [1]: 1 µM; inhibition at 100 µM [2]: 84.2 ± 0.5%
CC=Cn1n[n+](Cc2ccc(C)cc2)c2ccc3sccc3c21 [Compound 15, 3-(4-methylbenzyl)-1-(prop-1-en-1-yl)-1H-thieno[3′,2′:3.4]benzo[1.2-d][1.2,3]triazol-3-ium] | – | 0.9 | – | 14.4 | inhibition at 50 µM ([1]; read-out: BChE Inhibition (%)): 84 ± 0.7%; inhibition at 250 µM [2]: 82.3 ± 0.8%
CC=Cn1n[n+](Cc2ccc(Cl)cc2)c2ccc3sccc3c21 [Compound 16, 3-(4-chlorobenzyl)-1-(prop-1-en-1-yl)-1H-thieno[3′,2′:3,4]benzo[1,2-d][1–3]triazol-3-ium] | – | 2.3 | – | 5.4 | inhibition at 100 µM ([1]; read-out: BChE Inhibition (%)): 84.8 ± 0.8%; inhibition at 250 µM [2]: 82.6 ± 1.1%
CC=Cn1n[n+](Cc2ccc([N+](=O)[O-])cc2)c2ccc3sccc3c21 [Compound 17, 3-(4-nitrobenzyl)-1-(prop-1-en-1-yl)-1H-thieno[3′,2′:3,4]benzo[1,2-d][1–3]triazol-3-ium] | – | 11.4 | – | 63.8 | inhibition at 100 µM ([1]; read-out: BChE Inhibition (%)): 85.5 ± 0.5%; effect on LPS-stimulated TNFα production ([3]; PBMCs, starting concentration 100 µM, three-fold dilutions): slightly inhibited LPS-stimulated TNFα production; effect on cell viability [4]: no effect on cell viability; classification as AChE inhibitor ([2]; in words): weak AChE inhibitor; inhibition at 100 µM [2]: 62.6 ± 5.3%
C=CCn1n[n+](Cc2ccccc2)c2ccc3sccc3c21 [E] | – | – | – | – | IC50 [5]: 0.098 µM
Cc1ccc(C[n+]2nn(Cc3cccc(F)c3)c3c4ccsc4ccc32)cc1 [F] | – | – | – | – | IC50 [6]: 0.66 µM
C[C@@H]1C[C@H]2[C@@H]3CCC4=CC(=O)C=C[C@]4(C)[C@@]3(F)[C@@H](O)C[C@]2(C)[C@@]1(O)C(=O)CO [dexamethasone, reference compound] | – | – | – | – | IC50 ([3]; Homo sapiens, PBMC, PBMCs from two donors, read-out: IC50, inhibition of LPS-stimulated TNFα production): 0.0035 µM
